# According to the supplement of paper PMC11208160:
# Assay: recombinant UMI read abundance after kanamycin selection (control-corrected) (log10(CPM+1)); higher = more efficient recombination; extreme values may be limits of the assay; sequences stand for … in AGTGCAGAGAAAATCGGCCAGTTTTCTCTGCCTGCAGTCCGCATGCCGTGGGACCCCTTGGGTTCTAACCTGTTGCCTAGATTTATGCAGCGGACTGCCTTTCTCCCAAAGTGATAAACCGG…AGGTTGGTTTCACT; site = the 11-nt donor
# Method in brief: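 Reported values are log10(CPM+1) from a pooled Escherichia coli screen of donor and donor-binding-loop pairs for the IS621 bridge recombinase. Selection used IPTG (0.07 mM) plus kanamycin, against unselected plating, each in two replicates. Recombinant UMIs were amplified across the donor–target junction, sequenced, converted to CPM, averaged over replicates and scaled by control-derived factors.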
# 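Further: IS621 bridge recombinase in Escherichia coli cells against a fixed T5 target plasmid.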
row,Sequence,recombinant UMI read abundance (log10)
1,GCCAAGCCATGGACCGGTTTTCCCGGTAATCCGTATTTGTA (site GCCAGGCCTTA),0.00969
2,GCCAAGCCATGGACCGGTTTTCCCGGTAATCCGTATTTGTA (site GCCATGCCTTA),0.00407
3,GCCACGACATGGACCGGTTTTCCCGGTAATCCGTATTTGTA (site GCCACGACTTA),2.11
4,GCCACGACATGGACCGGTTTTCCCGGTAATCCGTATTTGTA (site GCCACGCCTTA),0.00858
5,GCCACGACATGGACCGGTTTTCCCGGTAATCCGTATTTGTA (site GCCACGGCTTA),0.423
6,GCCACGACATGGACCGGTTTTCCCGGTAATCCGTATTTGTA (site GCCACGTCTTA),0.283
7,GCCAGGACATGGACCGGTTTTCCCGGTAATCCGTATTTGTT (site GCCAGGACTAA),1.71
8,GCCAGGCCATGGACCGGTTTTCCCGGTAATCCGTATTTGTA (site GCCAAGCCTTA),0.198
9,GCCAGGCCATGGACCGGTTTTCCCGGTAATCCGTATTTGTA (site GCCACGCCTTA),0.00645
10,GCCAGGCCATGGACCGGTTTTCCCGGTAATCCGTATTTGTA (site GCCAGGCCTTA),0.112
11,GCCAGGCCATGGACCGGTTTTCCCGGTAATCCGTATTTGTA (site GCCATGCCTTA),0.00384
12,GCCATATCATGGACCGGTTTTCCCGGTAATCCGTATTTGTC (site ACCATATCTGA),1.74
13,GCCATATCATGGACCGGTTTTCCCGGTAATCCGTATTTGTC (site CCCATATCTGA),0.61
14,GCCATATCATGGACCGGTTTTCCCGGTAATCCGTATTTGTC (site GCCATATCTGA),1.87
15,GCCATATCATGGACCGGTTTTCCCGGTAATCCGTATTTGTC (site TCCATATCTGA),1.87
16,GCCCACCCATGGACCGGTTTTCCCGGTAATCCGTATTTGAA (site GCCCACCCTTT),0.362
17,GCCCCTACATGGACCGGTTTTCCCGGTAATCCGTATTTGCC (site GCCCCTACTGG),2.33
18,GCCCGAACATGGACCGGTTTTCCCGGTAATCCGTATTTGTC (site GCCCGAACTGA),1.98
19,GCCGACTCATGGACCGGTTTTCCCGGTAATCCGTATTTGCG (site GCCGACTCTCG),2.35

row,Sequence,recombinant UMI read abundance (log10)
1,GCCGAGCCATGGACCGGTTTTCCCGGTAATCCGTATTTGTA (site GCCGAGCCTTA),0.381
2,GCCGCACCATGGACCGGTTTTCCCGGTAATCCGTATTTGGA (site GCCGCACCTTC),0.0196
3,GCCGCGCCATGGACCGGTTTTCCCGGTAATCCGTATTTGGG (site GCCGCGCCTCC),0.0148
4,GCCGTCCCATGGACCGGTTTTCCCGGTAATCCGTATTTGCA (site GCCGTCCCTTG),0.345
5,GCCTACCCATGGACCGGTTTTCCCGGTAATCCGTATTTGAA (site GCCTACCCTTT),0.0461
6,GCCTAGACATGGACCGGTTTTCCCGGTAATCCGTATTTGGG (site ACCTAGACTCC),0.186
7,GCCTAGACATGGACCGGTTTTCCCGGTAATCCGTATTTGGG (site CCCTAGACTCC),0.0341
8,GCCTAGACATGGACCGGTTTTCCCGGTAATCCGTATTTGGG (site GCCTAGACTCC),0.283
9,GCCTAGACATGGACCGGTTTTCCCGGTAATCCGTATTTGGG (site TCCTAGACTCC),0.0888
10,GCCTAGCCATGGACCGGTTTTCCCGGTAATCCGTATTTGCC (site ACCTAGCCTGG),0
11,GCCTAGCCATGGACCGGTTTTCCCGGTAATCCGTATTTGCC (site CCCTAGCCTGG),0
12,GCCTAGCCATGGACCGGTTTTCCCGGTAATCCGTATTTGCC (site GCCTAGCCTGG),0
13,GCCTAGCCATGGACCGGTTTTCCCGGTAATCCGTATTTGCC (site TCCTAGCCTGG),0
14,GCCTCCCCATGGACCGGTTTTCCCGGTAATCCGTATTTGGA (site GCCTCCCCTTC),0.0286
15,GCCTGGACATGGACCGGTTTTCCCGGTAATCCGTATTTGGC (site GCCTGGACTGC),0.0803
16,GCCTTCACATGGACCGGTTTTCCCGGTAATCCGTATTTGTT (site GCCTTCACTAA),0.931
17,GCCTTCTCATGGACCGGTTTTCCCGGTAATCCGTATTTGGG (site ACCTTCTCTCC),0.00678
18,GCCTTCTCATGGACCGGTTTTCCCGGTAATCCGTATTTGGG (site CCCTTCTCTCC),0.0122
19,GCCTTCTCATGGACCGGTTTTCCCGGTAATCCGTATTTGGG (site GCCTTCTCTCC),0.00741

row,Sequence,recombinant UMI read abundance (log10)
1,GCCTTCTCATGGACCGGTTTTCCCGGTAATCCGTATTTGGG (site TCCTTCTCTCC),0.0193
2,GCGAAACCATGGACCGGTTTTCCCGGTAATCCGTATTTGGG (site GCGAAACCTCC),0
3,GCGAAACCATGGACCGGTTTTCCCGGTAATCCGTATTTGGG (site GCGAACCCTCC),0.0118
4,GCGAAACCATGGACCGGTTTTCCCGGTAATCCGTATTTGGG (site GCGAAGCCTCC),0.0136
5,GCGAAACCATGGACCGGTTTTCCCGGTAATCCGTATTTGGG (site GCGAATCCTCC),0
6,GCGAAACCATGGACCGGTTTTCCCGGTAATCCGTATTTGTG (site GCGAAACCTCA),0
7,GCGAACCCATGGACCGGTTTTCCCGGTAATCCGTATTTGAA (site GCGAACCCTTT),2.49
8,GCGAACGCATGGACCGGTTTTCCCGGTAATCCGTATTTGCT (site GCGAACGCTAG),2.26
9,GCGAAGACATGGACCGGTTTTCCCGGTAATCCGTATTTGTT (site GCGAAGACTAA),2.37
10,GCGAAGCCATGGACCGGTTTTCCCGGTAATCCGTATTTGAG (site GCGAAGCCTCA),0.0311
11,GCGAAGCCATGGACCGGTTTTCCCGGTAATCCGTATTTGAG (site GCGAAGCCTCC),0.0267
12,GCGAAGCCATGGACCGGTTTTCCCGGTAATCCGTATTTGAG (site GCGAAGCCTCG),0
13,GCGAAGCCATGGACCGGTTTTCCCGGTAATCCGTATTTGAG (site GCGAAGCCTCT),0.00807
14,GCGAAGCCATGGACCGGTTTTCCCGGTAATCCGTATTTGGG (site ACGAAGCCTCC),0.0189
15,GCGAAGCCATGGACCGGTTTTCCCGGTAATCCGTATTTGGG (site CCGAAGCCTCC),0.0227
16,GCGAAGCCATGGACCGGTTTTCCCGGTAATCCGTATTTGGG (site GAGAAGCCTCC),0.00349
17,GCGAAGCCATGGACCGGTTTTCCCGGTAATCCGTATTTGGG (site GCAAAGCCTCC),0.00547
18,GCGAAGCCATGGACCGGTTTTCCCGGTAATCCGTATTTGGG (site GCCAAGCCTCC),0
19,GCGAAGCCATGGACCGGTTTTCCCGGTAATCCGTATTTGGG (site GCGAAACCTCC),0
